These results are taken from the SangsterLogP compilation.

Test in the first series: not given
Conditions: not given
On to `CCCC(=O)OCC(COC(=O)C(C)c1ccc2cc(OC)ccc2c1)OC(=O)CCC` (configuration not stated), for which the logP – broadly, the decadic logarithm of the partition coefficient of the neutral form, usually between octanol and water – worked out at 4.84.

`CCCCCCCC/C=C\CCCCCCCC(=O)OCC(COC(=O)C(C)c1ccc2cc(OC)ccc2c1)OC(=O)CCCCCCC/C=C\CCCCCCCC` (configuration not stated): the log partition coefficient (logP) stood at 6.39.

The molecule `CCCCCC(=O)OCC(CCOC(=O)c1ccc2cc(OC)ccc2c1)OC(=O)CCCCC` (configuration not stated) returned a logP of 5.68.

With `CCCCCCCCCCCC(=O)OCC(COC(=O)C(C)c1ccc2cc(OC)ccc2c1)OC(=O)CCCCCCCCCCC` (configuration not stated), the logP worked out at 6.08. Consider `CCCCCCCCCCCCCCCC(=O)OCC(COC(=O)C(C)c1ccc2cc(OC)ccc2c1)OC(=O)CCCCCCCCCCCCCCC` (configuration not stated), for which the logP amounted to 6.28.

Test in the next series: not given
Conditions: not given
The source holds these as a separate data set.
The molecule `Cc1cc(C)cc(O)c1` came in with a logP of 2.54.

`Nc1ccc(F)c(Cl)c1` displayed a logP of 1.95. As for `c1ccc2ccccc2c1`, the logP was found to be 3.43. The molecule `CCOP(=O)(OCC)O/C(=C/Cl)c1ccc(Cl)cc1Cl` registered a logP of 3.84.

Test in another series: not given
Conditions: not given
The source holds these as a separate data set.
As to `O=C(O)c1ccccc1O`, the logP was found to be 1.75.

`c1cc2cccc3c4cccc5cccc(c(c1)c23)c54` yielded a logP of 6.53.

With `c1ccc2c(c1)cc1ccc3cccc4ccc2c1c34`, the logP was 6.57.

With `c1ccc2c(c1)ccc1c3ccccc3ccc21`, the logP was 6.01.

Test in the next series: not given
Conditions: not given
The source holds these as a separate data set.
With `COc1cccc(N)c1`, the logP stood at 1.11. Same read-out and setting: for `Cc1cccc(C)c1O` the value was 2.38. The molecule `Nc1ccccc1[N+](=O)[O-]` showed a logP of 1.62. The same measure, in the same setting: as for `COc1cccc(O)c1`, the figure is 1.52.

Test in a further series: not given
Conditions: not given
This is another data set of the same source.
Consider `CC(=O)Nc1ccccc1Cl`, for which the logP is 1.35. Still for that read-out and setting: as for `CNc1ccccc1`, the figure is 1.69; as for `OCc1ccncc1`, -0.04.

With `OCc1ccc(F)cc1`, the logP stood at 1.36.

Test in a further series: not given
Conditions: not given
The source holds these as a separate data set.
`COc1ccc(NC(=O)c2cc(-c3sc(NC(=O)C(C)(C)C)nc3C)n(-c3ccc(Br)cc3)n2)cc1`: the logP stood at 5.17.

Test in a further series: not given
Conditions: not given
The source holds these as a separate data set.
With `COP(=O)(NC(C)=O)SC` (configuration not stated), the logP was -0.46. `CNC(=O)O/N=C/C(C)(C)SC` returned a logP of 1.19. On to `Cc1cccc2sc3nncn3c12`, for which the logP was determined as 2.07.

`CCCOC(=O)NCCCN(C)C` gave a logP of 2.43.

Test in the next series: not given
Conditions: not given
This is another data set of the same source.
Consider `COC(N)=O`, for which the logP was -0.64. In the case of `OCCCCCCO`, the logP was -0.02. `CCCCC(N)=O` had a logP of 0.37. Take `OCCO`: the logP is -1.21.

The nature of the next series: method code SF-AS, from DOI: 10.1021/je700381u. Conditions: pH 0.0.
`O=C(O)c1ccc(F)c(Br)c1`: the logD (commonly the decadic logarithm of the distribution of all forms, ionised or not, between an organic phase and buffer at a given pH) came to 3.56. For `O=C(O)c1cc(F)ccc1Cl`, the logD came to 2.39. The molecule `O=C(O)c1cc(F)ccc1Br` gave a logD of 2.21.

`O=C(O)c1cccc(F)c1Cl` showed a logD of 1.74.

A short description of a further series: method code SF-AS, from DOI: 10.1021/jf60177a051.
Conditions: not given
`CC1=C(C(=O)Nc2ccccc2)S(=O)CCO1` (configuration not stated): the logP came out at 0.64. In turn, `CC1=C(C(=O)O)SCCO1` registered a lipophilicity (logP) of 0.04. Still for that read-out and setting: for `CC1=C(C(=O)Nc2ccccc2-c2ccccc2)SCCO1` the value was 2.54.

As to `CC1=C(C(=O)Nc2ccccc2)SCCO1`, the logP amounted to 1.73.

The next series is described as follows: method code SF-AS, from DOI: 10.1002/jps.2600710122.
Conditions: not given
On to `CCCC(=O)Nc1n[nH]c(NC(=O)CCC)n1`, for which the logP was 0.79. As for `O=C(Nc1n[nH]c(NC(=O)c2ccc([N+](=O)[O-])cc2)n1)c1ccc([N+](=O)[O-])cc1`, the logP is 0.55. Take `CCC(=O)Nc1n[nH]c(NC(=O)CC)n1`: the logP was -0.07.

The molecule `O=C(Nc1n[nH]c(NC(=O)C(F)(F)F)n1)C(F)(F)F` returned a logP of 0.62.

The next series is described as follows: method code SF-AS, from DOI: 10.1093/chemse/13.4.619. Particulars: pH 7.2.
In the case of `O=C(c1ccccc1)c1ccncc1`, the logD was 1.9. For `O=[N+]([O-])c1ccc(Cc2ccncc2)cc1`, the logD is 2.73. Still for that read-out and setting: for `CC(=O)c1ccncc1` the value was 0.4; for `c1ccc(Cc2ccncc2)cc1`, 2.62.

A further series in a line: method code SF-AS, from DOI: 10.1016/0378-5173(90)90042-3.
Conditions: not given
In the case of `CC(C)CCOC(=O)c1cc(=O)[nH]c(=O)[nH]1`, the logP came to 1.48. `CCOC(=O)c1cc(=O)[nH]c(=O)[nH]1` showed a logP of 0.68.

`COC(=O)c1cc(=O)[nH]c(=O)[nH]1` came in with a logP of 0.63.

Consider `CCCCCOC(=O)c1cc(=O)[nH]c(=O)[nH]1`, for which the lipophilicity (logP) was 1.62.

A further series can be described thus: method code SF-HPLC, from DOI: 10.1016/0045-6535(86)90532-1. Conditions: pH 6.5.
In the case of `CCNC(N)=S`, the logD was -0.21.

For the molecule `CN(C)C(N)=S`, the logD is -0.43. Regarding `CN(C)C(=S)N(C)C`, the logD was determined as 0.49. `CCNC(=S)NCC` yielded a logD of 0.57.

The next series can be described thus: method code SF-AS, from DOI: 10.1021/bi00730a008, PMID: 4688860.
Conditions: not given
`O=CNc1ccc([N+](=O)[O-])cc1` registered a logP of 1.43. With `COc1cccc(NC=O)c1`, the logP was determined as 1.25. Turning to `COc1ccc(NC=O)cc1`, the logP came to 1.03. With `Cc1ccc(NC=O)cc1`, the logP was 1.61.

A further series is described as follows: method code SF-AS, from DOI: 10.1021/jm00234a001, PMID: 1003419.
Conditions: not given
Consider `OC[C@H]1O[C@@H](Oc2ccc(I)c(O[C@@H]3O[C@H](CO)[C@@H](O)[C@H](O)[C@H]3O)c2I)[C@H](O)[C@@H](O)[C@@H]1O`, for which the logP is -1.31. Still for that read-out and setting: for `CNC(=O)c1c(I)c(NC(C)=O)c(I)c(O[C@@H]2O[C@H](CO)[C@@H](O)[C@H](O)[C@H]2O)c1I` the value was -1.49; for `CC(=O)Nc1c(I)c(C(=O)N[C@H]2C(O)O[C@H](CO)[C@@H](O)[C@@H]2O)c(I)c(N(C)C(C)=O)c1I` (some centres not stated), -1.89; for `Oc1c(I)cc(I)c(O)c1I`, 1.68.

The next series in a line: method code SF-AS, from DOI: 10.1021/jm00291a017, PMID: 5140011.
Conditions: not given
As to `S=C1CCCCCN1`, the logP came to 0.75. The molecule `S=C1CCCCCCN1` yielded a logP of 1. Regarding `S=C1CCCCCCCN1`, the logP was 1.44.

In turn, `S=C1CCCCN1` gave a logP of 0.13.

A further series is described as follows: method code SF-AS, from DOI: 10.1007/s001289900158, PMID: 8661463.
Conditions: not given
As for `CCN(CC)c1nc(Cl)nc(Cl)n1`, the logP was determined as 2.17. Consider `Clc1ccnc(Cl)n1`, for which the logP worked out at 1.16. In the case of `CCN(CC)c1nc(NN)nc(NN)n1`, the logP was 1.22.

For `NNc1nc(NN)nc(N2CCOCC2)n1`, the logP worked out at 0.62.

The next series in a line: method code SF-NMR, from DOI: 10.1002/jps.2600751016, PMID: 3795031.
Conditions: not given
Regarding `OCCCCCC(F)(F)F`, the logP was 1.64. Still for that read-out and setting: for `OCCCCC(F)(F)F` the value was 1.15; for `CC(O)CC(F)(F)F` (configuration not stated), 0.71. The molecule `CC(CCO)CC(F)(F)F` (configuration not stated) showed a logP of 1.61.

A further series in a line: method code SF, from DOI: 10.1016/s0968-0896(00)00025-0, PMID: 10882003.
Conditions: not given
`Cc1cccc(=O)[nH]1` displayed a logP of -0.04. In turn, `O=c1cccc[nH]1` registered a logP of -0.56. Regarding `CCOC(=O)c1cc(C#N)c(=O)[nH]c1C(F)(F)F`, the logP is 2.08.

The series is the same for the next values; noted with them: pH 7.4.
Take `O=c1cccc(Cl)[nH]1`: the logD was 0.78.

The next series can be described thus: method code SF-HPLC, from DOI: 10.1007/s00216-006-0868-5, PMID: 17082876.
Conditions: not given
In turn, `O=C(Nc1ccccc1)C(=O)Nc1ccccc1` showed a logP of 2. The same measure, in the same setting: as for `Cc1ccc(S(=O)(=O)Cl)cc1`, the figure is 3.25; as for `C=Cc1ccccc1C=C`, 3.49; as for `O=C1C(Cl)=C(Cl)C(=O)C(Cl)=C1Cl`, 2.19.

A short description of another series: method code SF-AS, from DOI: 10.1016/j.ejmech.2011.02.056, PMID: 21420207.
Conditions: not given
The molecule `CCCCCCCCCCCCCC(=O)N[C@H]1C[C@H](O[C@H]2C[C@](O)(C(=O)CO)Cc3c(O)c4c(c(O)c32)C(=O)c2c(OC)cccc2C4=O)O[C@@H](C)[C@H]1O` had a logP of 1.94. `CCSCCCCCCCCCCCC(=O)NC1CC(OC2CC(O)(C(=O)CO)Cc3c(O)c4c(c(O)c32)C(=O)c2c(OC)cccc2C4=O)OC(C)C1O` (configuration not stated): the logP came to 2. On the same count and under the same terms, for `CCCCCCCCCCCCCCCCCCCC(=O)N[C@H]1C[C@H](O[C@H]2C[C@](O)(C(=O)CO)Cc3c(O)c4c(c(O)c32)C(=O)c2c(OC)cccc2C4=O)O[C@@H](C)[C@H]1O` the value was 2.31. Same read-out and setting: for `CCCCCCCCCC(=O)N[C@H]1C[C@H](O[C@H]2C[C@](O)(C(=O)CO)Cc3c(O)c4c(c(O)c32)C(=O)c2c(OC)cccc2C4=O)O[C@@H](C)[C@H]1O` the value was 1.92. The same measure, in the same setting: as for `CCCCCCCCCCCCCCCCCC(=O)N[C@H]1C[C@H](O[C@H]2C[C@](O)(C(=O)CO)Cc3c(O)c4c(c(O)c32)C(=O)c2c(OC)cccc2C4=O)O[C@@H](C)[C@H]1O`, the figure is 2.17.
